Data on 92 compounds can be found in PubChem BioAssay AID1508591.

Molecules are shown by their SMILES.

The conditions of the data set: rat; liver microsomes; pH 7.4; 15.0 min; 1.0 µM. In general terms: Liver microsomes are vesicles of endoplasmic reticulum, rich in cytochrome P450 enzymes.
A word on the half-life: it is the time in which the quantity being followed falls by half. `COc1ccc(OC)c(CNc2ncnc3onc(C)c23)c1` had a half-life of 5.68 min.

`CC(C)CNc1ccnc(NCc2csc(-c3ccccc3)n2)n1` registered a half-life of 2.07 min.

Compound `COc1ccc(-c2noc([C@@H]3Cc4nc[nH]c4CN3C(=O)NC3CCCCC3)n2)cc1` had a half-life of 6.59 min.

In the case of `Cc1cnc(NC(=O)c2ccc(-c3cccc([N+](=O)[O-])c3)o2)s1`, the half-life is 10 min.

With `CCN1C(=O)c2ccccc2S(=O)c2ccc(C(=O)NCc3ccc(OC)cc3)cc21` (configuration not stated), the half-life is 7.8 min.

As to `CCc1ccc(C2Sc3ccccc3NC3=C2C(=O)c2ccccc23)cc1` (configuration not stated), the half-life stood at 1.81 min.

For `Cc1cc(C)nc(NC(=S)N2CCN(c3nccc(C(F)(F)F)n3)CC2)c1`, the half-life was determined as 16 min.

For the compound `CCOC(=O)C1CCN(c2ncc(-c3ccc4c(c3)OCCCO4)s2)CC1`, the half-life is 2.37 min. This half-life lies about 6.8-fold lower than the previous one.

`Cc1ccc(NC2=C(c3ccc(C(F)(F)F)cc3)C(=O)c3ccccc32)cc1C` had a half-life of 5.08 min.

Regarding `Cc1cc2ccccc2n1CC(=O)NC1CCCCC1`, the half-life is 2.8 min.

For `CCOc1ccc(CCNC(=O)c2cc3ccncc3n2Cc2cccc(C)c2)cc1OCC`, the half-life was 7.1 min.

As to `COc1cc(-c2csc(N3CCC(C(N)=O)CC3)n2)cc(OC)c1OC`, the half-life is above 30 min.

Take `c1coc(-c2nc3ccncc3[nH]2)c1`: the half-life is above 30 min.

Turning to `Cc1cc(NS(=O)(=O)c2ccc(C(=O)NCc3ccc(Cl)c(Cl)c3)cc2)no1`, the half-life is above 30 min.

On to `C[C@H]1CN(C(=O)c2nn(C)c3ccccc23)C[C@@H]1c1nc(-c2ccncc2)no1`, for which the half-life came to 5.01 min.

In turn, `O=C(Nc1ccc(S(=O)(=O)Nc2nccs2)cc1)c1ccncc1` yielded a half-life above 30 min.

Compound `Cc1ccc(Nc2nc(NCCO)c3ccccc3n2)cc1C` showed a half-life of 2.42 min.

`O=C(Nc1ccc(N2CCN(C(=O)c3ccccc3F)CC2)cc1)c1cncc(Br)c1`: the half-life was above 30 min.

Regarding `O=C(c1cnn(-c2cccc(F)c2)c1-n1cccc1)N1CCN(c2ccccc2F)CC1`, the half-life is 1.93 min.

`Cc1ccc(NC(=O)N2CCN(c3nc(N)nc4sc(-c5cccnc5)nc34)CC2)cc1` came in with a half-life of 17.1 min.

On to `Cc1cccc(Nc2nc(NCc3ccco3)c3ccccc3n2)c1`, for which the half-life was 3.54 min.

`O=c1n(-c2ccc(Cl)cc2)nc2n1CCN(Cc1ccc(C(F)(F)F)cc1)C2`: the half-life is above 30 min.

Regarding `COc1cccc(CNc2ccc(S(=O)(=O)Nc3cccc(N4CCNCC4)c3)cc2)c1O`, the half-life was above 30 min.

The compound `CCOC(=O)c1nn(-c2ccc(OC)cc2)c(=O)c2c(N)scc12` came in with a half-life of 9.52 min.

In turn, `CC1(C)CC2CC(C)(CN2S(=O)(=O)c2ccc(C(=O)Nc3cccc(S(=O)(=O)N4CCOCC4)c3)cc2)C1` (configuration not stated) registered a half-life of 2.8 min.

`Clc1ccc(-c2nc(-c3ccc(Br)o3)no2)c(Cl)c1`: the half-life is 13 min.

The compound `CC[C@H]1CN2CCC3CC(OC)C(OC)CC3[C@@H]2C[C@@H]1C[C@H]1NCCC2=C1CC(OC)=C(O)C2` (some centres not stated) displayed a half-life above 30 min.

In turn, `O=C(Nc1ccccc1)C1CC(=O)N(c2n[nH]c3cc(Br)ccc23)C1` (configuration not stated) registered a half-life above 30 min.

Turning to `CN(C)C(=O)c1cc2cnc(Nc3ccc(N4CCNCC4)cn3)nc2n1C1CCCC1`, the half-life was above 30 min.

Compound `COc1cc2c(cc1OCCCN1CCCC1)N=C(N)C21CCC1` registered a half-life above 30 min.

`Fc1cc(Nc2nc(-c3ccncc3)nc3ccccc23)ccc1N1CCCCC1` came in with a half-life of 5.9 min.

`Clc1ccccc1-c1nnc2sc(-c3ccc4c(c3)OCO4)nn12` displayed a half-life of 1.7 min. This half-life is about 3.5-fold lower than that of the compound before.

Take `CC(C)(C)C(O)C(Oc1ccc(Cl)cc1)n1cncn1` (configuration not stated): the half-life is above 30 min.

Consider `COc1ccc(-n2nc(C)c([C@@H]3C=C[C@@H](NCc4cccc(Cl)c4)C3)c2C)cc1`, for which the half-life was 4.19 min.

Take `COc1ccc(-c2noc(CSc3nnc(Cc4ccccc4)n3-c3ccc(F)cc3)n2)cc1`: the half-life was determined as 1.69 min.

For the compound `Fc1ccc(Nc2nc(Nc3ccncc3)nc3ccccc23)cc1F`, the half-life was above 30 min.

In turn, `CCc1cccc(C)c1Nc1c(-c2ccc(N(C)C)cc2)nc2ncccn12` registered a half-life of 4.23 min.

Compound `COc1cc2c(cc1-c1c(C)noc1C)ncc1[nH]c(=O)n([C@H](C)c3ccccn3)c12` displayed a half-life above 30 min.

The compound `Cc1cccc(-c2cc(NC(=O)c3ccccc3C)n(-c3ccccc3)n2)c1` gave a half-life of 3.18 min.

Consider `COc1ccc2[nH]c(C[C@@H]3C[C@@H](C(C)C)[C@H](CNCc4ccccc4O)C=C3C)nc2n1`, for which the half-life was 1.85 min.

`CNC(=O)C1CCN(C(=O)c2ccc(-c3ncc4cnc(-c5ccccc5)cn34)cc2)CC1` had a half-life above 30 min.

`O=C(Cc1ccc(Cl)c(Cl)c1)Nc1ccc(S(=O)(=O)Nc2ccon2)cc1` returned a half-life above 30 min.

Consider `C#CCNC(=O)c1nc(-c2ccc([S+](C)(=O)[O-])cc2)c2cnccn12`, for which the half-life was above 30 min.

As to `O=C(O)Cc1ccc2oc(-c3ccc(NC(=O)/C=C/c4ccc(Br)cc4)c(F)c3)nc2c1`, the half-life was above 30 min.

The compound `COc1ccc(NC(=O)C2=C(C)NC(Nc3nc4ccccc4o3)=NC2c2ccccc2Br)cc1` (configuration not stated) showed a half-life of 21 min.

Turning to `CN(C)c1cc(-c2nc(Nc3ccc(F)c(F)c3)c3ccccc3n2)ccn1`, the half-life is 13 min.

In turn, `Fc1cc(Nc2nc(-c3ccncc3)nc3ccccc23)ccc1-c1cccc(C(F)(F)F)c1` returned a half-life above 30 min.

As to `Fc1ccccc1-c1ccc(Nc2nc(-c3ccncc3)nc3ccccc23)cc1F`, the half-life was above 30 min.

`Cc1cnc(-c2ccccc2C(F)F)nc1NCC1CN(c2cnccn2)C1` registered a half-life of 1.8 min.

On to `COc1cccc(CNc2ccc(S(=O)(=O)Nc3ccc(C)nc3)cc2)c1O`, for which the half-life worked out at 16 min.

Turning to `CCOC(=O)C1CCN(c2ncnc3c2c(-c2ccccc2)cn3-c2ccccc2)CC1`, the half-life was found to be 1.69 min.

For the compound `COc1cc(NC(=O)c2cc(-c3ccccc3O)no2)cc(OC)c1OC`, the half-life came to 12.5 min.

In turn, `CC(=O)c1c(C)[nH]c(C(=O)Nc2cccc(S(=O)(=O)N3CCCCC3)c2)c1C` registered a half-life of 1.7 min.

The compound `CCN(c1ccccc1)S(=O)(=O)c1c(C)nc2scc(C)n2c1=O` had a half-life of 1.7 min.

Consider `Cc1cccc(C)c1C(=O)Nc1cccc([S+](=O)([O-])N(C)C)c1`, for which the half-life came to 8 min.

Compound `COc1ccc2cc1Oc1ccc(cc1)C[C@@H]1c3c(cc(OC)c4c3Oc3cc5c(cc3O4)CCN[C@H]5C2)CCN1C` came in with a half-life above 30 min.

`CC(=O)c1c(C)n(-c2ccccc2)c2ccc(O)cc12` came in with a half-life of 17 min.

`Cc1ccc(C(=O)Nc2ccc(CN3CCN(C)CC3)c(C(F)(F)F)c2)cc1C#Cc1cnc2cccnn12` registered a half-life above 30 min.

In turn, `O=C(O)c1cccc(-c2cnc3ccccc3c2)c1` displayed a half-life above 30 min.

Consider `Cn1cnc2c(F)c(Nc3ccc(Br)cc3Cl)c(C(=O)NOCCO)cc21`, for which the half-life is above 30 min.

For the compound `COc1ccc(CN2CCc3nc(N4CCN(c5ccc(F)cc5)CC4)ncc3C2)c(OC)c1OC`, the half-life worked out at 1.65 min.

`Cc1ccc(-c2ccc(CNc3nc(-c4ccccc4C(C)C)ncc3F)cc2)cn1` registered a half-life of 4.5 min.

Consider `O=C(O)C1CCN(c2ncc(-c3ccc4c(c3)OCCCO4)s2)CC1`, for which the half-life was above 30 min.

`Cn1ccc2c(C(=O)NCCC(N)=O)nc(-c3cccc(CO)c3)cc21` registered a half-life above 30 min.

Compound `O=C(Nc1nc(-c2ccccc2)cs1)c1ccncc1NS(=O)(=O)c1cccnc1` returned a half-life of 20 min.

In turn, `Cc1ccc(-c2cc(C(=O)Nc3ccncc3)c3ccccc3n2)cc1` had a half-life above 30 min.

In turn, `Cc1ccc(C(N)=O)cc1Nc1nccc(-c2cn(C(C)C)c3cnccc23)n1` registered a half-life above 30 min.

As to `COC(=O)CNC(=O)c1nc(-c2ccccc2OC)c2ccccn12`, the half-life was determined as 5.38 min.

`O=C(NCc1ccc(N2CCCC2)nc1)c1cc(Cl)ccc1O` returned a half-life of 1.9 min. This half-life lies about 2.8-fold lower than the previous one.

As for `COc1ccc(NC(=O)c2cccnc2)cc1S(=O)(=O)Nc1ccc(Br)cc1`, the half-life worked out at 21 min.

Regarding `CCC(C)N(C)C(=O)c1cc2ccccc2c(-c2ccccc2Cl)n1` (configuration not stated), the half-life turned out to be 3.84 min.

As to `CCN(CC)S(=O)(=O)c1ccc(N2CCOCC2)c(NC(=O)c2[nH]c(C)c(C(C)=O)c2C)c1`, the half-life was found to be 5.49 min.

Take `NC(=O)C1CCN(c2nc(-c3cccc(Cl)c3)cs2)CC1`: the half-life came out at 1.88 min.

For `CCNC(=O)C[C@@H]1N=C(c2ccc(Cl)cc2)c2cc(OC)ccc2-n2c(C)nnc21`, the half-life is above 30 min.

As to `Cc1ccc(S(=O)(=O)Nc2cccnc2C(=O)Nc2nc(-c3ccccc3)cs2)cc1`, the half-life amounted to 4.2 min.

Regarding `CC(C)c1ccc2oc3nc(N)c(C(=O)O)cc3c(=O)c2c1`, the half-life is above 30 min.

Turning to `CNS(=O)(=O)c1cc(-c2nn3c(C)nnc3c3ccccc23)ccc1C`, the half-life was above 30 min.

Compound `O=C(NCCc1ccccc1)C1CCN(c2nc(-c3ccc(Br)cc3)cs2)CC1` displayed a half-life of 1.71 min.

`Cc1ccc([S+](=O)([O-])n2cc(-c3ccc(-c4ccccc4)cc3)c3ccccc32)cc1` had a half-life above 30 min.

Compound `CCCc1ccc(C(=O)NC(=O)c2ccccc2O)cc1` came in with a half-life of 2.37 min.

The compound `CN1Cc2c(ccc3c2OCO3)[C@@H]2[C@H]1c1cc3c(cc1C[C@@H]2O)OCO3` returned a half-life of 2.12 min.

As to `Cc1ccc(C)n1-c1cccc(C(=O)O)c1`, the half-life amounted to 12 min. This half-life lies about 5.7-fold higher than the previous one.

`CCOP(=O)(Cc1ccc(C(=O)Nc2ccc(Br)cc2C#N)cc1)OCC` had a half-life above 30 min.

In the case of `NC(=O)COc1cccc(C2CC(=O)Nc3nc(N4CCCCC4)sc32)c1` (configuration not stated), the half-life was determined as 5.1 min.

In the case of `CCc1ccc(-n2nnc(-c3nsc(NC(=O)c4ccccc4Cl)n3)c2C)cc1`, the half-life was 10.9 min. This half-life lies about 2.1-fold higher than the previous one.

`CCc1ccc(NC(=O)c2[nH]c(C)c(C(C)=O)c2C)cc1S(=O)(=O)Nc1cccc(C#N)c1` showed a half-life of 6.1 min.

In the case of `CCN1CCN(C(=O)CCCn2nc(C)c3c(C)n(-c4ccc(C)cc4)nc3c2=O)CC1`, the half-life is 22.2 min.

`CCOc1ccc(CCNC(=O)c2cc3sccc3n2Cc2ccccc2)cc1OCC` had a half-life of 1.7 min.

`NC(=O)Nc1cc(-c2ccc(CN3CCOCC3)cc2)sc1C(N)=O` showed a half-life above 30 min.

`COc1cccc(N2CCN(c3ncc4c(n3)CCN(Cc3ccc(Br)cc3)C4)CC2)c1` registered a half-life of 18.2 min.

Consider `COc1cccc(CNc2ccc(S(=O)(=O)Nc3nccs3)cc2)c1O`, for which the half-life was above 30 min.

`Cc1ccc(S(=O)(=O)Nc2ccccc2Nc2nc(-c3ccccc3)cs2)cc1` came in with a half-life of 1.7 min.
